Measured values: BigSolDB 2.1

O=P(NCc1ccccc1)(Oc1ccccc1)Oc1ccccc1
solubility (mole fraction)
Settings | in THF | in acetone | in acetonitrile | in chloroform | in dichloromethane | in ethyl acetate | in methanol | in methyl acetate | in toluene
288.15 K | – | – | – | 0.095 | 0.055 | – | – | 0.0168 | –
293.15 K | 0.0978 | 0.0447 | 0.0148 | 0.109 | 0.0724 | 0.0199 | 0.0111 | 0.0234 | 0.0109
298.15 K | 0.115 | 0.0587 | 0.0196 | 0.126 | 0.0965 | 0.0279 | 0.0158 | 0.0309 | 0.016
303.15 K | 0.132 | 0.0741 | 0.0264 | 0.143 | 0.126 | 0.0368 | 0.0231 | 0.0407 | 0.0228
308.15 K | 0.157 | 0.0986 | 0.0344 | 0.164 | 0.157 | 0.0484 | 0.0322 | 0.055 | 0.0312
313.15 K | 0.183 | 0.122 | 0.0431 | 0.191 | – | 0.0627 | 0.0449 | 0.0699 | 0.0428
318.15 K | 0.208 | 0.154 | 0.0591 | 0.218 | – | 0.0824 | 0.0629 | 0.094 | 0.0574
323.15 K | 0.24 | 0.198 | 0.0742 | 0.248 | – | 0.104 | 0.0875 | 0.122 | 0.0814
328.15 K | – | – | 0.0948 | 0.275 | – | 0.137 | 0.125 | – | 0.108
333.15 K | – | – | 0.122 | – | – | 0.182 | 0.166 | – | 0.146
338.15 K | – | – | 0.155 | – | – | – | – | – | 0.187
343.15 K | – | – | – | – | – | – | – | – | 0.243
